Reference: PMC11325555, “Interaction of Bisphenol A and Its Analogs with Estrogen and Androgen Receptor from Atlantic Cod (Gadus morhua)” (Environmental Science & Technology, 2024)
Entries after “also recorded” stand apart in the source; their conditions may differ. Where two headings read alike, the source gives them in different places.

Key:
[1] = target: T1, Atlantic cod androgen receptor alpha (gmAra) LBD (Gadus morhua, UniProt D5FIC7); assay: Luciferase reporter gene assay, gmAra agonism (androgenic activity) in transfected COS-7 cells
T1 sequence (D5FIC7 409-718): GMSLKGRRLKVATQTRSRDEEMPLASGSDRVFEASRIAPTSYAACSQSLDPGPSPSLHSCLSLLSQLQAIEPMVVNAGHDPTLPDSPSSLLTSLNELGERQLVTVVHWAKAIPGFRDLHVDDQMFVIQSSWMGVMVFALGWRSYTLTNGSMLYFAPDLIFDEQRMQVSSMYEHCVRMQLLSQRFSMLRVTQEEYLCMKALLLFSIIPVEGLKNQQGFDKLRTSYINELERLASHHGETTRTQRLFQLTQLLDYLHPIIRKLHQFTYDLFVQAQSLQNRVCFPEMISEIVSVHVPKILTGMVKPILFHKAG
Experimental: (§1) Ligand activation of gmEra and gmAra was studied with a luciferase reporter gene assay in COS-7 cells transiently transfected with the pCMX-GAL4(DBD)-gmEra(LBD) or pCMX-GAL4(DBD)-gmAra(LBD) plasmid by using the TransIT-LT1 reagent (TransIT-LT1 Transfection Reagent, Mirus). Cells were seeded into 96-well plates (5000 cells/well) and incubated for 24 h before cotransfection with the plasmid mixture (100 ng/well). The plasmid mixture contained GAL4-UAS luciferase reporter plasmid (tk-(MH100)x4 luc), the pCMX-GAL4(DBD)-gmEra(LBD) or pCMX-GAL4(DBD)-gmAra(LBD) receptor plasmids (2:1 reporter:receptor plasmid mass ratio), and a plasmid constitutively producing the β-galactosidase enzyme used for normalization of transfection efficiency (pCMV- β-Gal). […] The maximum DMSO/methanol concentrations in the exposure wells were 0.5% (v/v) in DMEM medium without phenol red (Sigma-Aldrich). After exposure, cells were lysed, and luciferase and beta-galactosidase activities were measured as luminescence and absorbance (420 nm) after the addition of luciferin and ONPG substrates, respectively, using an Enspire Multimode plate reader (PerkinElmer, Waltham, Massachusetts, USA).
Figure 3 Androgenic activity of bisphenols. COS-7 cells were transiently transfected with gmAra LBD and exposed individually to 12 bisphenol analogs at increasing concentrations. […] The dose–response curves were created using nonlinear regression and the four-parameter logistic fit in Graphpad Prism v.9. For comparison, the dose–response curve of BPA (black line) is indicated together with each individual BP tested (red line). *p < 0.05 versus solvent control by one-way ANOVA and Dunnett’s multiple comparison post hoc test.

Er [2] = system: Er; set-up: method as in PMID 12651187; details: carp; cited from earlier work
Er [3] = system: Er; set-up: method as in doi:10.11403/jset.11.133; details: medaka; cited from earlier work
[4] = target: T2, Atlantic cod estrogen receptor alpha (gmEra) LBD (Gadus morhua, UniProt U5ILH7); assay: Luciferase reporter gene assay, gmEra antagonism (antiestrogenic activity), coexposure with 3 nM EE2; format: cell-based; details: coexposure with EE2 (3 nM, EC20)
T2 sequence (U5ILH7 170-455): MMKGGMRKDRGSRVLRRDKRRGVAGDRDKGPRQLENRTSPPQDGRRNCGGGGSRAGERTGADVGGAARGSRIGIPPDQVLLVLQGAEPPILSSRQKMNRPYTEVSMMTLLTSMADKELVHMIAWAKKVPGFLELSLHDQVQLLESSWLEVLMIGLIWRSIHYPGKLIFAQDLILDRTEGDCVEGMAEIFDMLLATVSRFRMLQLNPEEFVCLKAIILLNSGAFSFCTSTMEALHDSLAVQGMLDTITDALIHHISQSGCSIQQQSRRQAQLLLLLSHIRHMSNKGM
Experimental: as §1
To investigate potential antiestrogenic effects, COS-7 cells transiently expressing gmEra LBD were exposed to the 12 bisphenols in binary mixtures with a fixed concentration of EE2 (3 nM, corresponding to EC20) (Figure 2 and Table 1).
(§2) The dose–response curves were created using nonlinear regression and the four-parameter logistic fit in Graphpad Prism v.9. *p < 0.05 versus solvent control by ANOVA and Dunnett’s multiple comparison post hoc test.

[5] = target: T1, Atlantic cod androgen receptor alpha (gmAra) LBD; assay: Luciferase reporter gene assay, gmAra antagonism (antiandrogenic activity), coexposure with 5 nM testosterone; format: cell-based
Experimental: as §1, §2

human Era = system: human Era; set-up: method as in PMID 15635150; details: cited from earlier work
[6] = target: T2, Atlantic cod estrogen receptor alpha (gmEra) LBD; assay: Luciferase reporter gene assay, gmEra agonism (estrogenic activity) in transfected COS-7 cells
Experimental: as §1
Luciferase reporter gene assays were established with COS-7 cells transiently producing the LBD of gmEra (Figure S1) for evaluating the estrogenic potential of 12 bisphenols.
COS-7 cells transiently transfected with gmEra-LBD were exposed to EE2 (open circles), BPA (black circles), and 11 different BPA analogs (red squares and as indicated) at increasing concentrations. Responses are presented as mean fold activation in luciferase activity in comparison to solvent-exposed cells ± SEM from three independent experiments with three technical replicates (n = 9). The dose–response curves were created using nonlinear regression and the four parameter logistic fit in Graphpad Prism v.9. For comparison, the dose–response curve of BPA (black line) is indicated together with each individual BP tested (red line). *p < 0.05 versus solvent control by one-way ANOVA and Dunnett’s multiple comparison post hoc test.

- EC50 [1]: 25.7 µM
- maximal fold induction ([1]; COS-7, monkey, 24 h, read-out: gmAra Emax): 1.6
- gmAra REP50 (relative potency EC50, EC50-bisphenol A/EC50-bisphenol X) ([1]; relative to BPA): 1.0
- IC50 ([5]; gmAra IC50, in the presence of 5 nM testosterone (EC20)): 0.14 µM
- maximal fold induction ([6]; COS-7, monkey, 24 h, read-out: gmEra Emax): 19.4
- gmEra Emax ([6]; fold activation in luciferase activity vs solvent control, 24 h exposure, * = statistically significant, a = plateau not reached, highest fold activation obtained, 1440 min): 19 fold activation
- EC50 ([6]; gmEra EC50, four-parameter logistic fit, 24 h exposure): 1.9 µM
- gmEra REP50 (relative potency EC50, EC50-bisphenol A/EC50-bisphenol X) ([6]; relative to BPA): 1.0
SMILES: CC(C)(c1ccc(O)cc1)c1ccc(O)cc1 [BPA, Bisphenol A]
- EC50 (Er [2]): 26 µM
- EC50 (Er [3]): 0.59 µM
- antiestrogenic effect on gmEra, result in words [4]: did not antagonize gmEra; also recorded: no antiestrogenic effects
- effect on testosterone-mediated gmAra activity, result in words ([5]; BPs 0.003–50 μM with 5 nM testosterone): significantly decrease the testosterone-mediated Ara-activity
- EC50 (human Era): 0.63 µM
